IC50 data for 2 molecules are collected here from patent publication US10689400B2, “Macrocycle kinase inhibitors” (Turning Point Therapeutics, Inc., priority 2016, dated 2020).

pIC50: −log10 of the molar value.

Assay [1] has as its system KM12 cells (harboring endogenous TPM3-TRKA fusion gene). Put plainly: KM12 cell proliferation assay (CellTiter-Glo, 72 hours). The format is cell-based. The following applies: Homo sapiens, KM12 colorectal cell line, 72 hours incubation. On the procedure: (§1) Colorectal cell lines KM 12 (harboring endogenous TPM3-TRKA fusion gene) cells were cultured in DMEM medium, supplemented with 10% fetal bovine serum and 100 U/mL of penicillin/streptomycin. 5000 cells were seeded in 384 well white plate for 24 hours before compounds treatment. Cell proliferation was measured using CellTiter-Glo luciferase-based ATP detection assay (Promega) following the manufactures's protocol after 72 hours incubation. IC50 determinations were performed using GraphPad Prism software (GraphPad, Inc., San Diego, Calif.).
as §1, with “Alternatively: Colorectal” for “Colorectal”, “line KM12” for “lines KM 12”, “DMEM medium, supplemented with 10% fetal bovine serum and 100 U/mL of penicillin/streptomycin. Essential thrombocythemia cell line SET-2 cells (harboring endogenous JAK2 V618F point mutation) were cultured in RPMI” for “DMEM”
For orientation: In ATP-based viability assays light output follows the ATP content of the culture.

For assay [2], the system named is SET-2 cells (harboring endogenous JAK2 V618F point mutation). As to the kind of experiment: SET-2 cell proliferation assay (CellTiter-Glo, 72 hours). The following applies: Homo sapiens, SET-2 essential thrombocythemia cell line, 72 hours incubation, read-out: Cell Proliferation JAK2 SET2 Cell IC50. The format is cell-based. On the procedure:
as §1, with “Alternatively: Colorectal” for “Colorectal”, “line KM12” for “lines KM 12”, “DMEM medium, supplemented with 10% fetal bovine serum and 100 U/mL of penicillin/streptomycin. Essential thrombocythemia cell line SET-2 cells (harboring endogenous JAK2 V618F point mutation) were cultured in RPMI” for “DMEM”

In assay [3] the target is T1, BTK kinase (Homo sapiens, UniProt Q06187).
T1 construct: purchased Eurofins (KinaseProfiler) / Reaction Biology Corporation
Put plainly: BTK biochemical kinase assay (radiometric; Eurofins KinaseProfiler / Reaction Biology). The following applies: ATP 10 μM. On the procedure:
The Compounds were tested against BTK kinase using the Eurofins standard KinaseProfiler™ assays and following the relevant standard operating procedures. Protein kinases were assayed in a radiometric format. Full details of the assay for each kinase are available on the Eurofins website, or in the accompanying protocol document. All compounds were prepared to a working stock of 50× final assay concentration in 100% DMSO. Where appropriate, more concentrated stocks were diluted manually to 50× using 100% DMSO. Compounds supplied as powders were reconstituted to a 10 mM stock in 100% DMSO before further dilution to 50×. The required volume of the 50× stock of test compound was added to the assay well, before a reaction mix containing the enzyme and substrate was added. The reaction was initiated by the addition of ATP at the selected 10 μM concentration. There was no pre-incubation of the compound with the enzyme/substrate mix prior to ATP addition. For IC50 determinations, data are analysed using XLFit version 5.3 (ID Business Solutions). Sigmoidal dose-response (variable slope) curves are fit based on the mean result for each test concentration using non-linear regression analysis. Where the top and/or bottom of the curve fall >10% out with 100 and 0, respectively, either or both of these limits may be constrained at 100 and 0, provided that the QC criterion on R^2 is met.
The BTK biochemical kinase assay was also performed at Reaction Biology Corporation (www.reactionbiology.com, Malvern, Pa.) following the procedures described in the reference (Anastassiadis T, et al Nat Biotechnol. 2011, 29, 1039). Specific kinase/substrate pairs along with required cofactors were prepared in reaction buffer; 20 mM Hepes pH 7.5, 10 mM MgCl2, 1 mM EGTA, 0.02% Brij35, 0.02 mg/ml BSA, 0.1 mM Na3VO4, 2 mM DTT, 1% DMSO (for specific details of individual kinase reaction components see Supplementary Table 2). Compounds were delivered into the reaction, followed ˜20 minutes later by addition of a mixture of ATP (Sigma, St. Louis Mo.) and ^33P ATP (Perkin Elmer, Waltham Mass.) to a final concentration of 10 μM. Reactions were carried out at room temperature for 120 min, followed by spotting of the reactions onto P81 ion exchange filter paper (Whatman Inc., Piscataway, N.J.). Unbound phosphate was removed by extensive washing of filters in 0.75% phosphoric acid. […] IC50 values and curve fits were obtained using Prism (GraphPad Software).

T1 sequence (Q06187 whole entry): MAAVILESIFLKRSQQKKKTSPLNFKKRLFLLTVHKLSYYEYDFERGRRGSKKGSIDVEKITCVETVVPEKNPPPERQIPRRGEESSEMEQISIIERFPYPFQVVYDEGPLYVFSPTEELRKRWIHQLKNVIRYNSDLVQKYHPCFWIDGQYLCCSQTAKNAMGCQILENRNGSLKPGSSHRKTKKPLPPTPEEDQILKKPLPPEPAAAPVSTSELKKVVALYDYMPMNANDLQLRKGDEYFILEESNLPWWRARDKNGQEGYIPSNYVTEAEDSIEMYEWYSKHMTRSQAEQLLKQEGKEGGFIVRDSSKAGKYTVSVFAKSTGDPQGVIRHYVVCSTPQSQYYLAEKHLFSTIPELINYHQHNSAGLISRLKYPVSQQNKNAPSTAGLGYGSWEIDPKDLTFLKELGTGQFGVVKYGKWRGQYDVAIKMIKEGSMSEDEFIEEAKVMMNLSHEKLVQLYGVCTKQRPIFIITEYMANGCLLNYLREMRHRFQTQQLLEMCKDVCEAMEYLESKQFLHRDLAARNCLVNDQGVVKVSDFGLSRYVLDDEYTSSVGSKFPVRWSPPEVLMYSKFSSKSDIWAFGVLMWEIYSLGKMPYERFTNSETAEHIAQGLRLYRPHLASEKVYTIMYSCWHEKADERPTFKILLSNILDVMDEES

On to `C[C@H]1CNC(=O)c2cnn3ccc(nc23)N[C@H](C)c2cc(F)cc(-c3cnn(C)c3)c2O1` [Compound 18, (7S,13R)-11-fluoro-7,13-dimethyl-9-(1-methyl-1H-pyrazol-4-yl)-6,7,13,14-tetrahydro-1,15-ethenopyrazolo[4,3-f][1,4,8,10]benzoxatriazacyclotridecin-4(5H)-one], for which the pIC50 was 7.63 in assay [1], 6.22 in assay [2] and 7.22 in assay [3].
With `C[C@H]1Nc2ccn3ncc(c3n2)C(=O)NCCOc2c(-c3cnn(C)c3)cc(F)cc21` [Compound 19, (13R)-11-fluoro-13-methyl-9-(1-methyl-1H-pyrazol-4-yl)-6,7,13,14-tetrahydro-1,15-ethenopyrazolo[4,3-f][1,4,8,10]benzoxatriazacyclotridecin-4(5H)-one], the pIC50 in assay [1] is 7.27; in assay [2], 6.00; in assay [3], 6.32.
